The source of these data is article PMC3071873 (Journal of medicinal chemistry, 2010).

Where “and” joins values, the source holds several entries; their conditions need not be identical. Equal values may be shown once.

For data set [1] the following is noted: storage in solution; oxidative or hydrolytic degradation; cited from earlier work.
For data set [2], the target named is T1, human MAO B (Homo sapiens, UniProt P27338).
T1 sequence (P27338 1-520): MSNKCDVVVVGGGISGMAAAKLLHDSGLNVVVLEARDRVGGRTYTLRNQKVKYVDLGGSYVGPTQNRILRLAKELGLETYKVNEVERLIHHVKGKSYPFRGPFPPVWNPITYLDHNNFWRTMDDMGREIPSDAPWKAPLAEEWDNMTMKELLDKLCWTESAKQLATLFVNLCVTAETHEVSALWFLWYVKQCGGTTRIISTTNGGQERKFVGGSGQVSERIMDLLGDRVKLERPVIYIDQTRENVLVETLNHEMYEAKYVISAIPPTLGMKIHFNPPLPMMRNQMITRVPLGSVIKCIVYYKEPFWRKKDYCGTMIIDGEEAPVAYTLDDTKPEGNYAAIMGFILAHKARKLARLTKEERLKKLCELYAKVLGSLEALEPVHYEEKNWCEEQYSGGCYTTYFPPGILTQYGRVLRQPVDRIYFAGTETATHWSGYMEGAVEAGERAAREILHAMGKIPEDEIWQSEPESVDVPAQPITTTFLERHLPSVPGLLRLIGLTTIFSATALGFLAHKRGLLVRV
In words: Inhibition of purified recombinant human MAO B. Format: biochemical. The following applies: versus safinamide (ref 12).

In data set [3] the test system is toxic effect of 1-methyl-4-phenyl-tetrahydropyridine (MPTP). To be noted: mice; cited from earlier work.
For data set [4] the following is noted: cited from earlier work.
Data set [5] concerns mouse MAO B. To be noted: membrane-bound mouse MAO B; cited from earlier work.
The target in data set [6] is rat monoamine oxidase (MAO) B. To be noted: weak inhibitor; cited from earlier work.
The conditions of data set [7]: humans, daily dosage of 25 mg; cited from earlier work.

As to `NS(=O)(=O)Cc1noc2ccccc12` [Zonisamide, 1,2-benzisoxazole-3-methanesulfonamide], the “stability of aged solutions” value in data set [1] was “lose inhibition potency on storage in solution”. Moreover, in data set [2], the “weaker Ki value with human MAO B compared to safinamide” value is reported as ~ 6 fold. Besides, the “effect on MPTP toxicity” value in data set [3] was “attenuates the toxic effect”. In data set [4], the “brain tissue versus plasma concentrations” value is “higher in brain tissues”. Also, in data set [5], the IC50 (as a rule, the concentration that gives 50% inhibition) is 25 µM. The Ki (usually a dissociation constant, usually derived from enzyme kinetics or from competition with a known ligand) in data set [6] is 660 µM. Besides, the “plasma (serum) concentration” value in data set [7] was ~ 0.6 μM and 0.6 μM.
